According to PMC9455983 (International Journal of Molecular Sciences, 2022):
Like-named read-outs stand apart in the source and are kept apart here.

Legend:
C57BL/6J mice [1] = assay: 55 °C warm-water tail-withdrawal assay (antinociception); type: in vivo, mouse; settings: for ED50 (and 95% Confidence Interval (C.I.)) Values, i.c.v. (nmol): antinociception at peak response, mice, * ED50 estimated where maximum antinociception not achieved; for duration of significant antinociception: maximum doses tested
Experimental: For intracerebroventricular (i.c.v.) administration, the 1968-series compounds were dissolved in dimethyl sulfoxide (DMSO), followed by the addition of sterile saline (0.9%) so that the final vehicle was 50% DMSO and 50% saline, and the i.c.v. injections were performed as described previously. For per os (p.o.) administration, 1968-4 and 1968-22 were administered in 10% Ethanol/10%Tween-80/80% 0.9% saline. All solutions for animal administration were prepared fresh daily.
Antinociception was calculated according to the following formula: % antinociception = 100 × (test latency − control latency)/(15 − control latency). Tail-withdrawal data points are the means of 8–16 mice, unless otherwise indicated, with SEM shown by error bars.
All dose–response lines were analyzed by regression, and ED50 (effective dose producing 50% antinociception) values and 95% confidence intervals (C.I.) were determined using individual data points from graded dose–response curves with Prism 8.0 software (GraphPad, La Jolla, CA, USA). Percent antinociception was used to determine within group effects and to allow comparison to baseline latency in tail-withdrawal experiments. The statistical significance of differences between ED50 values was determined by evaluation of the ED50 value shift via nonlinear regression modeling with Prism software. Significant differences in behavioral data were analyzed by ANOVA (one-way or two-way with repeated measures (RM), as appropriate). Significant results were further analyzed with Sidak’s, Tukey’s, or Dunnett’s multiple comparison post hoc tests, as appropriate. Data for conditioned place preference experiments were analyzed by two-way RM ANOVA, with analyses examining the main effect of the conditioned place preference phase (e.g., pre- or post-conditioning) and the interaction of drug pretreatment. Significant effects were further analyzed using Sidak’s HSD post hoc testing. All data are presented as mean ± SEM, with significance set at p < 0.05.

[2] = target: T1, kappa-opioid receptor (KOR) (Cavia porcellus, UniProt P41144); assay: KOR radioligand competition binding assay ([3H]U69,593); set-up: species or system guinea pig; settings: Kappa screening results
T1 construct: Guinea pig cortices and cerebella were homogenized using 50 mM Tris, pH 7.4; from tissue; host or cells: guinea pig cortex and cerebellum membranes
Procedure, shortened: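 Guinea pig cortex and cerebellum homogenates in 50 mM Tris pH 7.4 with 10 mM MgCl2, 2 nM [3H]U69,593, 2 h at 25 °C. Unlabeled U50,488 gave the standard curve and nonspecific binding. Filtration on BSA-soaked GF/B filters, scintillation counting; two replicates, repeated twice, mean ± SD.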

mu-opioid receptor (MOR) = target: T2, mu-opioid receptor (MOR) (Rattus norvegicus, UniProt P33535); assay: MOR radioligand competition binding assay ([3H]-DAMGO); settings: Mu screening results
T2 construct: Rat cortices were homogenized using 50 mM Tris, pH 7.4, and centrifuged at 16,500 rpm for 10 min; from tissue; host or cells: rat cortex membranes
Procedure, shortened: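 Competition for 2 nM [3H]-DAMGO binding was measured in rat cortex membrane suspension (50 mM Tris, pH 7.4, plus 2 mg/mL bovine serum). After filtration through GF/B filters pre-soaked in BSA, filter radioactivity was counted. Data are two duplicate experiments reported as mean ± SD.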

[3] = target: T3, delta-opioid receptor (DOR) (Rattus norvegicus, UniProt P33533); assay: DOR radioligand competition binding assay ([3H]-DPDPE); settings: Delta screening results
T3 construct: Rat cortices were homogenized using 50 mM Tris, pH 7.4, 10 mM MgCl2-6H2O, 200 µM PMSF; from tissue; host or cells: rat cortex membranes
Procedure, shortened: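 Radioligand was 2 nM [3H]-DPDPE, incubated 2.5 h at 25 °C with homogenized rat cortex (50 mM Tris pH 7.4, 10 mM MgCl2, 200 µM PMSF). Bound ligand separated on GF/B filters and counted; nonspecific binding from unlabeled DPDPE. Values are mean ± SD, two experiments, two replicates each.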

C57BL/6J mice [4] = assay: Opioid receptor involvement in antinociception (antagonist pretreatment, tail-withdrawal assay); type: in vivo, mouse
Experimental: Pretreatment of mice with the opioid antagonist naloxone (10 mg/kg, s.c., −15 min) was used to assess receptor contribution to the observed antinociception induced by maximal tested doses of each 1968-series compound tested.
The opioid receptor involvement in the agonist activity of the heterocyclic peptidomimetics was determined by pretreating mice with a single dose of β-funaltrexamine (β-FNA, 10 mg/kg, i.p.) or nor-BNI (10 mg/kg, i.p.) 24 h in advance of administration of a dose of 1968-series compound.

C57BL/6J mice [5] = assay: Conditioned place preference / aversion; type: in vivo, mouse; settings: 10 mg/kg, i.p.; two days of place conditioning
C57BL/6J mice [6] = assay: Ambulation (locomotor activity) in CLAMS/Oxymax system; type: in vivo, mouse; settings: 100 nmol, i.c.v.
Experimental: (§1) Respiration rates (in breaths per minute) and animal locomotive activity (as ambulations) were assessed using the Oxymax/CLAMS system (Columbus Instruments, Columbus, OH), as described previously. Mice were habituated to their individual sealed housing chambers for 60 min before testing. Mice were administered 1968-22 (0.3–100 nmol, i.c.v.), morphine (100 nmol, i.c.v.), or vehicle, as indicated, and five min later confined to the CLAMS testing chambers. Pressure monitoring within the sealed chambers measured frequency of respiration. Infrared beams located in the floor measured locomotion as number of beam breaks. Respiration and locomotive data were averaged over 20 min periods for 120 min post-injection of the test compound. Data are presented as % vehicle response ± SEM, ambulation or breaths per minute.

C57BL/6J mice [7] = assay: Acute antinociceptive tolerance determination
C57BL/6J mice [8] = assay: Respiration rate in CLAMS/Oxymax system; type: in vivo, mouse; settings: 100 nmol, i.c.v.
Experimental: as §1

[9] = experiment 1, unit inferred, read-out: Ki (Exp 1)
[10] = experiment 2, unit inferred, read-out: Ki (Exp 2)
[11] = mean of Exp 1 and Exp 2, unit inferred, read-out: MEAN (Ki)
[12] = mean of two experiments, read-out: Ki
[13] = first Ki column, unit not printed (apparently M), read-out: Ki (first column)
[14] = mean of both Ki, unit inferred, read-out: MEAN (Ki)
[15] = second Ki column, unit not printed (apparently M), read-out: Ki (second column)

Structure (SMILES)	Ki [2, 9] [nM]	Ki [2, 10] [nM]	Ki [2, 11] [nM]	Ki [2, 12] [nM]	Ki (mu-opioid receptor (MOR); [9]) [nM]	Ki (mu-opioid receptor (MOR); [10]) [nM]	Ki (mu-opioid receptor (MOR); [11]) [nM]	Ki (mu-opioid receptor (MOR); [12]) [nM]	Ki [3, 13] [nM]	Ki [3, 14] [nM]	Ki [3, 12] [nM]	Ki [3, 15] [nM]	other results
Cc1cc(O)cc(C)c1C[C@H]1CN([C@@H](Cc2ccc(O)cc2)CN2C(=N)NC[C@@H]2Cc2ccccc2)C(=N)N1 [1968-4]	311	178	245	245	16.9	9.51	13.2	13	729	874	874	1020	antinociception at the highest dose tested (C57BL/6J mice [1]; 30 nmol, i.c.v.): approximately 60%; antinociception after oral administration (in words) (C57BL/6J mice [1]; 10 mg/kg, p.o.): significant antinociception; duration of significant antinociception after oral administration (C57BL/6J mice [1]; 10 mg/kg, p.o.): brief; time of peak antinociception after i.c.v. administration (C57BL/6J mice [1]; i.c.v.): 30 min; ED50 (and 95% Confidence Interval (C.I.)) Values, i.c.v. (nmol) (C57BL/6J mice [1]; i.c.v.): 20.8 (5.52–127.1) nmol; duration of significant antinociception (C57BL/6J mice [1]; i.c.v.): 60 min
Cc1cc(O)cc(C)c1C[C@@H](CN1C(=N)NC[C@@H]1C)N1C[C@H](Cc2ccc(O)cc2)NC1=N [1968-16]	246	293	270	270	7.52	9.24	8.38	8	616	697	697	777	ED50 (and 95% Confidence Interval (C.I.)) Values, i.c.v. (nmol) (C57BL/6J mice [1]; i.c.v.): 2.00 (0.5–7.45) nmol; duration of significant antinociception (C57BL/6J mice [1]; i.c.v.): 70 min; effect of naloxone pretreatment on antinociception (C57BL/6J mice [4]; naloxone 10 mg/kg, s.c., −15 min, maximal tested i.c.v. dose of compound): most susceptible to antagonism by naloxone; effect of naltrindole (DOR antagonist) pretreatment on antinociception (C57BL/6J mice [4]; naltrindole 20 mg/kg, i.p., −20 min, 1968-16 30 nmol or 1968-22 0.3 nmol, i.c.v.): significantly antagonized; effect of nor-BNI (KOR antagonist) pretreatment on antinociception (C57BL/6J mice [4]; nor-BNI 10 mg/kg, i.p., −24 h, 1968-16 30 nmol or 1968-22 0.3 nmol, i.c.v.): significantly antagonized; effect of β-FNA (MOR antagonist) pretreatment on antinociception (C57BL/6J mice [4]; β-FNA 10 mg/kg, i.p., −24 h, 1968-16 30 nmol or 1968-22 0.3 nmol, i.c.v.): significantly antagonized
Cc1cc(O)cc(C)c1C[C@H]1CN([C@@H](Cc2c(C)cc(O)cc2C)CN2C(=N)NC[C@@H]2Cc2c(C)cc(O)cc2C)C(=N)N1 [1968-64]	2820	1590	2210	2210	58.6	88	73.3	73	508	579	579	650	
N=C1NC[C@H](Cc2ccccc2)N1C[C@H](Cc1ccccc1)N1C[C@H](Cc2ccccc2)NC1=N [1968-65]	16600	15200	15900	15900	2370	2830	2600	2600	7340	7320	7320	7290	
CC(C)C[C@H]1CN([C@@H](Cc2ccc(O)cc2)CN2C(=N)NC[C@@H]2Cc2ccccc2)C(=N)N1 [1968-66]	2660	3320	2990	2990	2040	1990	2020	2020	18200				
Cc1cc(O)cc(C)c1C[C@@H](CN1C(=N)NC[C@@H]1Cc1ccccc1)N1C[C@H](Cc2ccccc2)NC1=N [1968-67]	1230	1120	1170	1170	230	177	203	203	828	830	830	833	
Cc1cc(O)cc(C)c1C[C@H]1CN([C@@H](Cc2c(C)cc(O)cc2C)CN2C(=N)NC[C@@H]2Cc2ccccc2)C(=N)N1 [1968-68]	538	568	553	553	89.3	76.7	83	83	426	462	462	498	
CC(C)C[C@H]1CN([C@@H](Cc2ccccc2)CN2C(=N)NC[C@@H]2Cc2ccc(O)cc2)C(=N)N1 [1968-69]	2120	2130	2120	2120	208	188	198	198	4230	4630	4630	5020	
N=C1NC[C@H](Cc2ccc(O)cc2)N1C[C@H](Cc1ccc(O)cc1)N1C[C@H](Cc2ccc(O)cc2)NC1=N [1968-70]	11100	5550	8320	8320	230	282	256	256	9960	10800	10800	11700	
Cc1cc(O)cc(C)c1C[C@H]1CNC(=N)N1C[C@H](Cc1ccc(O)cc1)N1C[C@H](CC(C)C)NC1=N [1968-71]	373	386	380	380	58	53	55.5	56	3830	3430	3430	3020	
CN1CC[C@]23c4c5ccc(O)c4O[C@H]2[C@@H](O)C=C[C@H]3[C@H]1C5 [Morphine, morphine, reference compound]													time of peak antinociception after i.c.v. administration (C57BL/6J mice [1]; i.c.v.): 30 min; ED50 (and 95% Confidence Interval (C.I.)) Values, i.c.v. (nmol) (C57BL/6J mice [1]; i.c.v.): 3.09 (2.76–3.50) nmol; place conditioning result (C57BL/6J mice [5]): significant place preference; effect on ambulation vs vehicle (C57BL/6J mice [6]): elevated ambulations; fold rightward shift in dose-response curve of the second dose (acute tolerance) (C57BL/6J mice [7]; ED50 dose i.c.v. at 0 h, graded doses at 8 h): 7.71 fold; ED50 (95% C.I.) of second dose at 8 h (C57BL/6J mice [7]; i.c.v., after ED50 pretreatment at 0 h): 23.8 (17.0–31.6) nmol; effect on respiration rate vs vehicle (C57BL/6J mice [8]): significant, time-dependent respiratory depression
